molecular target: human Nav1.7 (Homo sapiens (Human), UniProt Q15858); assay: Human Nav1.7 inhibitory activity evaluation (automated patch clamp QPatch16X, HEK293A cells stably expressing human Nav1.7 and human Navβ1); type: cell-based; conditions: human Nav1.7, automated patch clamp
Outline: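 IC50 calculated from the concentration-response of inward current evoked by the second −10 mV, 50 ms depolarisation, which follows a 15 s conditioning step at roughly 30-40% inactivation and a 100 ms −120 mV interval. Cells: HEK293A expressing human Nav1.7/Navβ1, automated patch clamp, room temperature, 0.1% DMSO final.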

human Nav1.7, sequence (Q15858 whole entry): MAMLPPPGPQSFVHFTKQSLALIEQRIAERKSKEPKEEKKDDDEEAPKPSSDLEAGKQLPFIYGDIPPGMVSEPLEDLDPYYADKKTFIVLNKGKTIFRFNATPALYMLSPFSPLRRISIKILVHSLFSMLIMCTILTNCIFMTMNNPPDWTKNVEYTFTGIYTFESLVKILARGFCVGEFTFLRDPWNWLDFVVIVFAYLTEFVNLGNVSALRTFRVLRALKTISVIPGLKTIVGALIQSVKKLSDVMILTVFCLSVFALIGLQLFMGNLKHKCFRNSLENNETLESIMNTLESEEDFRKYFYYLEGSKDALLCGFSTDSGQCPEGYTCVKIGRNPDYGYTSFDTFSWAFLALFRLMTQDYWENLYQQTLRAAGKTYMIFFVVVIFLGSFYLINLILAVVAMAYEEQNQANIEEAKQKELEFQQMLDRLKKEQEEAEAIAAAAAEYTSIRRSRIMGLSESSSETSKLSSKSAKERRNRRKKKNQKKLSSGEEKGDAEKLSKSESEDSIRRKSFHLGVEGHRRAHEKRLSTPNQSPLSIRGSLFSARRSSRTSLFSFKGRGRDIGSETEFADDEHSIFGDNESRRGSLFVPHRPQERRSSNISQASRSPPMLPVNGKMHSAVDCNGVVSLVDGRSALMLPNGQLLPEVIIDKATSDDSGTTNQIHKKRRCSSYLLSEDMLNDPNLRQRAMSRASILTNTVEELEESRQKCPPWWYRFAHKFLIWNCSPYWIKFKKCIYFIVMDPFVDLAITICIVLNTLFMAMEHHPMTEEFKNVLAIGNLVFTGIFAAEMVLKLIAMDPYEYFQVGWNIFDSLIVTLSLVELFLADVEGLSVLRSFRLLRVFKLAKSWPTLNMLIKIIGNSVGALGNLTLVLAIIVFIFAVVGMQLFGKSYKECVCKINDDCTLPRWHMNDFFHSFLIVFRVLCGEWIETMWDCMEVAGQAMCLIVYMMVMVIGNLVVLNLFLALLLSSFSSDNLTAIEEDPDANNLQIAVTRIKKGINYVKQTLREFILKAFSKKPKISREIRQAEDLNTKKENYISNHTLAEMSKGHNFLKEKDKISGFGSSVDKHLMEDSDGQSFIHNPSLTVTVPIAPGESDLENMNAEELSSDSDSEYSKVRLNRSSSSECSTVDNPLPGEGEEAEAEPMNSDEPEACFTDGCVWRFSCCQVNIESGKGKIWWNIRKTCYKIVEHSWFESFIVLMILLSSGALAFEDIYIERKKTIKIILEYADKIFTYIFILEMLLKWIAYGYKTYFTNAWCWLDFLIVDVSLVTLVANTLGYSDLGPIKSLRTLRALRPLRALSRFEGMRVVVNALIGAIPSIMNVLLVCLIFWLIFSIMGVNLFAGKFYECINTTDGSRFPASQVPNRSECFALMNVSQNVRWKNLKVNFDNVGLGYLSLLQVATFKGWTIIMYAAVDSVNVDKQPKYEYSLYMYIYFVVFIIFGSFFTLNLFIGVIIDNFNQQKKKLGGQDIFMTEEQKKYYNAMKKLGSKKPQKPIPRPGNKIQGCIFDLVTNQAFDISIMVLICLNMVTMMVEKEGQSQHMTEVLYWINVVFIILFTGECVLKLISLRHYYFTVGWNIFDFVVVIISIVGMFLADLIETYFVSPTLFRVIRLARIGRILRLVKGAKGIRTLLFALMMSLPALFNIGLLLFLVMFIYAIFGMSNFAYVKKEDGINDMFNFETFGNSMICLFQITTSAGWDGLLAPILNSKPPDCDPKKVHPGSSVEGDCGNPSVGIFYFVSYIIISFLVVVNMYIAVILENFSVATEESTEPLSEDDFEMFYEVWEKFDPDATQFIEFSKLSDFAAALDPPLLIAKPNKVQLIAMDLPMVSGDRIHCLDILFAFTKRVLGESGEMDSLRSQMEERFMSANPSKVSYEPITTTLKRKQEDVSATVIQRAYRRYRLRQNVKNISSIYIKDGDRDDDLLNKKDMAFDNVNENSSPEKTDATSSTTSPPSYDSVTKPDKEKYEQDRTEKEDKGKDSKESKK
human Nav1.7, sequence (Q07699 19-218 partner): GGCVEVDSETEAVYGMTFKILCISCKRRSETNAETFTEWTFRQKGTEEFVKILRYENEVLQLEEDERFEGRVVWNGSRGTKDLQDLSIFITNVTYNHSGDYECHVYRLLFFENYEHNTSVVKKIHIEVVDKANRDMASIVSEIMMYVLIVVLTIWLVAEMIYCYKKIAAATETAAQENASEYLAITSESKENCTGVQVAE

IC50	SMILES
< 1000 nM	CC(C)(F)C1CCn2nc(C(=O)N[C@H]3COc4ccc(C#N)cc4C3)cc2O1 (some centres unmarked) [Example 540]
< 10000 nM	N#Cc1ccc(N2CCn3nc(C(=O)N[C@H]4COc5ccc(Cl)cc5C4)cc3C2)nc1 [Example 280]
< 10000 nM	COc1ncc(C(F)(F)F)cc1C1CCc2nc(C(=O)N3CCC(c4ccccc4)C3)cn2C1 (centres unmarked) [Example 316]
< 10000 nM	O=C(N[C@H]1COc2ccccc2C1)c1nc2n(c1-c1ccccc1)CCN(CC(F)(F)F)C2 [Example 338]
< 1000 nM	Cc1cnc(-c2ccc3c(c2)C[C@@H](NC(=O)c2cc4n(n2)CC(COCC(F)(F)F)O4)CO3)cn1 (single isomer, unassigned) [194 (isomer B)]
< 10000 nM	Cn1ccc(-c2ccc3c(c2)C[C@@H](NC(=O)c2cc4n(n2)CCC(COCC2CC2)O4)CO3)n1 (some centres unmarked) [Example 426]
< 10000 nM	N#Cc1ccc2c(c1)C[C@@H](NC(=O)c1cc3n(n1)CCC(CSCC(F)(F)F)O3)CO2 (some centres unmarked) [Example 422]
< 1000 nM	O=C(N[C@H]1COc2ccc(-c3cnccn3)cc2C1)c1cc2n(n1)CC(CCOC(F)F)O2 (some centres unmarked) [Example 222]
< 1000 nM	N#Cc1ccc2c(c1)C[C@@H](NC(=O)c1cc3n(n1)CCC(CSC(F)(F)F)O3)CO2 (single isomer, unassigned) [156 (isomer A)]
< 10000 nM	O=C(c1cn2c(n1)CNC(c1cccc(OC(F)(F)F)c1)C2)N1CC[C@H](Oc2cccc(C(F)F)n2)C1 (some centres unmarked) [Example 336]
< 10000 nM	CC(C)(C)OCCN1CCn2nc(C(=O)N[C@H]3COc4ccc(C(F)F)cc4C3)cc2C1 [Example 272]
< 1000 nM	O=C(N[C@H]1COc2ccc(CC(F)F)cc2C1)c1cc2n(n1)CCN(CCC1CC1)C2 [Example 504]
< 1000 nM	Cn1ccc(-c2ccc3c(c2)C[C@@H](NC(=O)c2cc4n(n2)CC(CCSCC(F)(F)F)O4)CO3)n1 (some centres unmarked) [Example 457]
< 1000 nM	O=C(N[C@H]1COc2ccc(C(F)(F)F)cc2C1O)c1cc2n(n1)CC(CCCOCC(F)(F)F)O2 (single isomer, unassigned) [603 (isomer B)]
< 1000 nM	O=C(N[C@H]1COc2ccc(Cl)cc2C1)c1cc2n(n1)CCN(CCC1CC1)C2 [Example 263]
< 1000 nM	O=C(N[C@H]1COc2ccc(COCC(F)(F)F)cc2C1)c1cc2n(n1)CCC(CCOC(F)F)O2 (some centres unmarked) [Example 149]
< 1000 nM	CCc1ccc2c(c1)CC(NC(=O)c1cn3c(n1)CCC(C(F)(F)F)C3)CO2 (centres unmarked) [Example 295]
< 1000 nM	O=C(N[C@H]1COc2ccc(COCC(F)(F)F)cc2C1)c1cc2n(n1)CCC(C1CCOCC1)O2 (single isomer, unassigned) [615 (isomer B)]
< 1000 nM	N#Cc1ccc2c(c1)C[C@@H](NC(=O)c1cc3n(n1)CC(COCC1CCC1)O3)CO2 (some centres unmarked) [Example 464]
< 10000 nM	CCC(O)(CC)C1CCn2nc(C(=O)N[C@H]3COc4ccc(Cl)cc4C3)cc2O1 (some centres unmarked) [Example 168]
< 1000 nM	O=C(N[C@H]1COc2ccc(CC(F)F)cc2C1)c1cc2n(n1)CC(CCOC(F)F)O2 (some centres unmarked) [Example 218]
< 1000 nM	O=C(N[C@H]1COc2ccc(C(F)(F)F)cc2C1)c1cc2n(n1)CCC(COCC(F)(F)F)O2 (some centres unmarked) [Example 432]

molecular target: human Nav1.5 (Homo sapiens (Human), UniProt Q14524); assay: Human Nav1.5 inhibitory activity evaluation (automated patch clamp QPatch16X, HEK293 cells stably expressing human Nav1.5); type: cell-based; conditions: human Nav1.5, automated patch clamp
Outline: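 IC50 derived from concentration-response of inward current at the 20th of 20 action-potential-mimicking pulses (holding −80 mV, leak corrected with −100 mV step). HEK293 cells stably expressing human Nav1.5, room temperature, extracellular pH 7.4, intracellular CsF-based pH 7.3, 0.1% DMSO.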

human Nav1.5, sequence (Q14524 whole entry): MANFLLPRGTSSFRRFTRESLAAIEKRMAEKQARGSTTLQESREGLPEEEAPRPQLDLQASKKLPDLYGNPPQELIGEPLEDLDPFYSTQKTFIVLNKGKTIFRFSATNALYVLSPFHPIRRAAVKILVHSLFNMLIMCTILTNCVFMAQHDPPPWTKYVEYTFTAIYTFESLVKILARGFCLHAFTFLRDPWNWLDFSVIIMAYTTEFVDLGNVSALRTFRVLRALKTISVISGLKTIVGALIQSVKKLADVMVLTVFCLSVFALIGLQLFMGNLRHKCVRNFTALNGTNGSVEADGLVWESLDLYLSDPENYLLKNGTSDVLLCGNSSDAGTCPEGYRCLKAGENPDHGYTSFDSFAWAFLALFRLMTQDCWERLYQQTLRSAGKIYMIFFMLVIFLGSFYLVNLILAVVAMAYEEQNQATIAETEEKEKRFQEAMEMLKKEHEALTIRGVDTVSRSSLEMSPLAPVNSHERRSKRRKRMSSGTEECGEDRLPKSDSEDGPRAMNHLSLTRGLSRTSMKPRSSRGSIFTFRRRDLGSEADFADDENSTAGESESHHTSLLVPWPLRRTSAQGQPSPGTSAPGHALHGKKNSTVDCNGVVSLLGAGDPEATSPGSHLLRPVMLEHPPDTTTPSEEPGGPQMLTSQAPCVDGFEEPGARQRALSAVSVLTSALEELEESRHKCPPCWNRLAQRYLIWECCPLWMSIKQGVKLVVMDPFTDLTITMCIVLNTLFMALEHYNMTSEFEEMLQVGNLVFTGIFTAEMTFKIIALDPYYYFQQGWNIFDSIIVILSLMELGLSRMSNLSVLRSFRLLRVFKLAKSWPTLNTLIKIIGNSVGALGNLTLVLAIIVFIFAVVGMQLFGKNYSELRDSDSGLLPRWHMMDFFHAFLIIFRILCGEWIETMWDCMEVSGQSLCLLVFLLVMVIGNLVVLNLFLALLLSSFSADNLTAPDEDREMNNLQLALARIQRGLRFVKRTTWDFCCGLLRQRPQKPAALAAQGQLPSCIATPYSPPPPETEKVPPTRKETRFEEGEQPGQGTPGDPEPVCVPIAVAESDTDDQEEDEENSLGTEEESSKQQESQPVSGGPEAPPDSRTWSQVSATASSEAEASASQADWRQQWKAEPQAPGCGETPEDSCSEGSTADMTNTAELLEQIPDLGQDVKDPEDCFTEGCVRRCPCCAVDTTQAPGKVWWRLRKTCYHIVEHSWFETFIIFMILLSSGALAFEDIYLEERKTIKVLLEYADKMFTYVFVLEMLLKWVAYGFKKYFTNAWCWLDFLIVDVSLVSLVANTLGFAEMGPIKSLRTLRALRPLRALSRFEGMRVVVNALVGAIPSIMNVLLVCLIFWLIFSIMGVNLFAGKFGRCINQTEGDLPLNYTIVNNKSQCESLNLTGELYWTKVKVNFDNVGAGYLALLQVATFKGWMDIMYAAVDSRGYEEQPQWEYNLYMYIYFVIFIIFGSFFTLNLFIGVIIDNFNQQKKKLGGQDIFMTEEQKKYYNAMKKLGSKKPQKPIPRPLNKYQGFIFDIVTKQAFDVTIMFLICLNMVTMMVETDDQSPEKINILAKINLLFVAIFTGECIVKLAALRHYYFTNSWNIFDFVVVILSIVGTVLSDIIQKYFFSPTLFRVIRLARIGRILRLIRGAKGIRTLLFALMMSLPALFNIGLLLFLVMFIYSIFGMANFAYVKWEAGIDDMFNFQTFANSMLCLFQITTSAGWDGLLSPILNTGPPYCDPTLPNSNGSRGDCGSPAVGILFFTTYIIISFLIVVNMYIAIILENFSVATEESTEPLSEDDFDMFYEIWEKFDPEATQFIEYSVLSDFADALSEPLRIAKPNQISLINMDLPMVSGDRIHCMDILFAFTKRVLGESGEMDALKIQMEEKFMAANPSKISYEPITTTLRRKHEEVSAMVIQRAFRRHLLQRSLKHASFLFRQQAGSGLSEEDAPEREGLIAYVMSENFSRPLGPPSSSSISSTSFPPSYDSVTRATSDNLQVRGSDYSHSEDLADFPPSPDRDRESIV

SMILES	IC50
CC(C)(F)C1CCn2nc(C(=O)N[C@H]3COc4ccc(C#N)cc4C3)cc2O1 (some centres unmarked) [Example 540]	1000 to 3000 nM
N#Cc1ccc(N2CCn3nc(C(=O)N[C@H]4COc5ccc(Cl)cc5C4)cc3C2)nc1 [Example 280]	< 1000 nM
COc1ncc(C(F)(F)F)cc1C1CCc2nc(C(=O)N3CCC(c4ccccc4)C3)cn2C1 (centres unmarked) [Example 316]	1000 to 3000 nM
O=C(N[C@H]1COc2ccccc2C1)c1nc2n(c1-c1ccccc1)CCN(CC(F)(F)F)C2 [Example 338]	≥ 3000 nM
Cc1cnc(-c2ccc3c(c2)C[C@@H](NC(=O)c2cc4n(n2)CC(COCC(F)(F)F)O4)CO3)cn1 (single isomer, unassigned) [194 (isomer B)]	≥ 3000 nM
Cn1ccc(-c2ccc3c(c2)C[C@@H](NC(=O)c2cc4n(n2)CCC(COCC2CC2)O4)CO3)n1 (some centres unmarked) [Example 426]	≥ 3000 nM
N#Cc1ccc2c(c1)C[C@@H](NC(=O)c1cc3n(n1)CCC(CSCC(F)(F)F)O3)CO2 (some centres unmarked) [Example 422]	≥ 3000 nM
O=C(N[C@H]1COc2ccc(-c3cnccn3)cc2C1)c1cc2n(n1)CC(CCOC(F)F)O2 (some centres unmarked) [Example 222]	≥ 3000 nM
N#Cc1ccc2c(c1)C[C@@H](NC(=O)c1cc3n(n1)CCC(CSC(F)(F)F)O3)CO2 (single isomer, unassigned) [156 (isomer A)]	≥ 3000 nM
O=C(c1cn2c(n1)CNC(c1cccc(OC(F)(F)F)c1)C2)N1CC[C@H](Oc2cccc(C(F)F)n2)C1 (some centres unmarked) [Example 336]	1000 to 3000 nM
CC(C)(C)OCCN1CCn2nc(C(=O)N[C@H]3COc4ccc(C(F)F)cc4C3)cc2C1 [Example 272]	≥ 3000 nM
O=C(N[C@H]1COc2ccc(CC(F)F)cc2C1)c1cc2n(n1)CCN(CCC1CC1)C2 [Example 504]	1000 to 3000 nM
Cn1ccc(-c2ccc3c(c2)C[C@@H](NC(=O)c2cc4n(n2)CC(CCSCC(F)(F)F)O4)CO3)n1 (some centres unmarked) [Example 457]	≥ 3000 nM
O=C(N[C@H]1COc2ccc(C(F)(F)F)cc2C1O)c1cc2n(n1)CC(CCCOCC(F)(F)F)O2 (single isomer, unassigned) [603 (isomer B)]	≥ 3000 nM
O=C(N[C@H]1COc2ccc(Cl)cc2C1)c1cc2n(n1)CCN(CCC1CC1)C2 [Example 263]	1000 to 3000 nM
O=C(N[C@H]1COc2ccc(COCC(F)(F)F)cc2C1)c1cc2n(n1)CCC(CCOC(F)F)O2 (some centres unmarked) [Example 149]	1000 to 3000 nM
CCc1ccc2c(c1)CC(NC(=O)c1cn3c(n1)CCC(C(F)(F)F)C3)CO2 (centres unmarked) [Example 295]	≥ 3000 nM
O=C(N[C@H]1COc2ccc(COCC(F)(F)F)cc2C1)c1cc2n(n1)CCC(C1CCOCC1)O2 (single isomer, unassigned) [615 (isomer B)]	≥ 3000 nM
N#Cc1ccc2c(c1)C[C@@H](NC(=O)c1cc3n(n1)CC(COCC1CCC1)O3)CO2 (some centres unmarked) [Example 464]	≥ 3000 nM
CCC(O)(CC)C1CCn2nc(C(=O)N[C@H]3COc4ccc(Cl)cc4C3)cc2O1 (some centres unmarked) [Example 168]	≥ 3000 nM
O=C(N[C@H]1COc2ccc(CC(F)F)cc2C1)c1cc2n(n1)CC(CCOC(F)F)O2 (some centres unmarked) [Example 218]	≥ 3000 nM
O=C(N[C@H]1COc2ccc(C(F)(F)F)cc2C1)c1cc2n(n1)CCC(COCC(F)(F)F)O2 (some centres unmarked) [Example 432]	1000 to 3000 nM
